US11981658B2, “Substituted aminopyridine compounds as EGFR inhibitors” (YUHAN CORPORATION, priority 2021, dated 2024)
Like-named read-outs stand apart in the source and are kept apart here.

Key:
[1] = biological target: EGFR Del19/T790M/C797S (Homo sapiens, UniProt P00533, C797S/DEL746-750/T790M); experiment: Biochemical EGFR kinase inhibition assay (Lance Ultra TR-FRET), triple mutant del19/T790M/C797S
In short: (§1)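 Kinase activity is measured by TR-FRET phosphopeptide detection. Compounds span 0.003 μM to 10 μM; the 1 h reaction at room temperature is quenched with EDTA, then labelled antibody (2 nM) is incubated 60 min before reading.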

[2] = biological target: EGFR L858R/T790M/C797S (Homo sapiens, UniProt P00533, C797S/L858R/T790M); experiment: Biochemical EGFR kinase inhibition assay (Lance Ultra TR-FRET), triple mutant L858R/T790M/C797S
In short: as §1

[3] = biological target: EGFR Del19/C797S (Homo sapiens, UniProt P00533, C797S/DEL746-750); experiment: Biochemical EGFR kinase inhibition assay (Lance Ultra TR-FRET), double mutant del19/C797S
In short: as §1

[4] = biological target: EGFR L858R/C797S (Homo sapiens, UniProt P00533, C797S/L858R); experiment: Biochemical EGFR kinase inhibition assay (Lance Ultra TR-FRET), double mutant L858R/C797S
In short: as §1

[5] = biological target: EGFR wildtype (WT) (Homo sapiens, UniProt P00533); experiment: Biochemical EGFR kinase inhibition assay (Lance Ultra TR-FRET), wildtype
In short: as §1

[6] = ATP at Km, read-out: IC50 Del19/T790M/C797S (nM), Km ATP
[7] = IC50 Del19/T790M/C797S (nM), 100 μM ATP
[8] = ATP at Km, read-out: IC50 L858R/T790M/C797S (nM), Km ATP
[9] = IC50 L858R/T790M/C797S (nM), 100 μM ATP
[10] = ATP at Km, read-out: IC50 Del19/C797S (nM), Km ATP
[11] = IC50 Del19/C797S (nM), 100 μM ATP
[12] = ATP at Km, read-out: IC50 L858R/C797S (nM), Km ATP
[13] = IC50 L858R/C797S (nM), 100 μM ATP
[14] = ATP at Km, read-out: IC50 WT (nM), Km ATP
[15] = Km ATP, read-out: IC50 Del19/T790M/C797S (nM), Km ATP
[16] = Km ATP, read-out: IC50 L858R/T790M/C797S (nM), Km ATP
[17] = Km ATP, read-out: IC50 Del19/C797S (nM), Km ATP
[18] = Km ATP, read-out: IC50 L858R/C797S (nM), Km ATP
[19] = Km ATP, read-out: IC50 WT (nM), Km ATP

Chain of EGFR L858R/C797S (P00533 25-1210 C797S/L858R): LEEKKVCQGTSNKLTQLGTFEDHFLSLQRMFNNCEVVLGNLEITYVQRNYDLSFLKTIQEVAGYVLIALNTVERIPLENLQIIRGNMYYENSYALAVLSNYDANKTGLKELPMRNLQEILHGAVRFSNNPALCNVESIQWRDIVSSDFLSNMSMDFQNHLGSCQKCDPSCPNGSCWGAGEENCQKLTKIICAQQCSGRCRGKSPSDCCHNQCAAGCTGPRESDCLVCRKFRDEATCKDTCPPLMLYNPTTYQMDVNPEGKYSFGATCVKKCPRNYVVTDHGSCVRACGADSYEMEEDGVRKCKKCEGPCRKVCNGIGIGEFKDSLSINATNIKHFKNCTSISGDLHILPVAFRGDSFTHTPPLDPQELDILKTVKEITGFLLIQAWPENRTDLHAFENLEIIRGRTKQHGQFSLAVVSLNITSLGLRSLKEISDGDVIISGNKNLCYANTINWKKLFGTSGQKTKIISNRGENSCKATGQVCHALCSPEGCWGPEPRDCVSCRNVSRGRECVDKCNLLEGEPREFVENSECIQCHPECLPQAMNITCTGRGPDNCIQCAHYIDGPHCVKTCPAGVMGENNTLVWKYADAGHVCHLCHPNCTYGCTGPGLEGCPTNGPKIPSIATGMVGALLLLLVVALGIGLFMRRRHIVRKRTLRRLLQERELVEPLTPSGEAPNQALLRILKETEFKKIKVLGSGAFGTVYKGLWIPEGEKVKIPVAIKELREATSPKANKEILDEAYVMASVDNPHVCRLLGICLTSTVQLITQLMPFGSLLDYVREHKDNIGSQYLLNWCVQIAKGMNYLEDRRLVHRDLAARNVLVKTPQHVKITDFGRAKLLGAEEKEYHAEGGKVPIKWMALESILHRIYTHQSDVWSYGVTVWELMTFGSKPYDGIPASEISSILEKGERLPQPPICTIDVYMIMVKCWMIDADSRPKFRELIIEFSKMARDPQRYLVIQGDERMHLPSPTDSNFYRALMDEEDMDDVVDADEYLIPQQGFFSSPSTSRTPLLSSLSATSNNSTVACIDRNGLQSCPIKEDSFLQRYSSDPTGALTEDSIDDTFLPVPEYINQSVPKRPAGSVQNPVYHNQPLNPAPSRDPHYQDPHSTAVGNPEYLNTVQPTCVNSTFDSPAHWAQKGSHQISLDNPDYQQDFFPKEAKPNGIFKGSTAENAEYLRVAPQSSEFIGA
Chain of EGFR Del19/T790M/C797S (P00533 with tags, fused parts or gaps DEL746-750/T790M/C797S): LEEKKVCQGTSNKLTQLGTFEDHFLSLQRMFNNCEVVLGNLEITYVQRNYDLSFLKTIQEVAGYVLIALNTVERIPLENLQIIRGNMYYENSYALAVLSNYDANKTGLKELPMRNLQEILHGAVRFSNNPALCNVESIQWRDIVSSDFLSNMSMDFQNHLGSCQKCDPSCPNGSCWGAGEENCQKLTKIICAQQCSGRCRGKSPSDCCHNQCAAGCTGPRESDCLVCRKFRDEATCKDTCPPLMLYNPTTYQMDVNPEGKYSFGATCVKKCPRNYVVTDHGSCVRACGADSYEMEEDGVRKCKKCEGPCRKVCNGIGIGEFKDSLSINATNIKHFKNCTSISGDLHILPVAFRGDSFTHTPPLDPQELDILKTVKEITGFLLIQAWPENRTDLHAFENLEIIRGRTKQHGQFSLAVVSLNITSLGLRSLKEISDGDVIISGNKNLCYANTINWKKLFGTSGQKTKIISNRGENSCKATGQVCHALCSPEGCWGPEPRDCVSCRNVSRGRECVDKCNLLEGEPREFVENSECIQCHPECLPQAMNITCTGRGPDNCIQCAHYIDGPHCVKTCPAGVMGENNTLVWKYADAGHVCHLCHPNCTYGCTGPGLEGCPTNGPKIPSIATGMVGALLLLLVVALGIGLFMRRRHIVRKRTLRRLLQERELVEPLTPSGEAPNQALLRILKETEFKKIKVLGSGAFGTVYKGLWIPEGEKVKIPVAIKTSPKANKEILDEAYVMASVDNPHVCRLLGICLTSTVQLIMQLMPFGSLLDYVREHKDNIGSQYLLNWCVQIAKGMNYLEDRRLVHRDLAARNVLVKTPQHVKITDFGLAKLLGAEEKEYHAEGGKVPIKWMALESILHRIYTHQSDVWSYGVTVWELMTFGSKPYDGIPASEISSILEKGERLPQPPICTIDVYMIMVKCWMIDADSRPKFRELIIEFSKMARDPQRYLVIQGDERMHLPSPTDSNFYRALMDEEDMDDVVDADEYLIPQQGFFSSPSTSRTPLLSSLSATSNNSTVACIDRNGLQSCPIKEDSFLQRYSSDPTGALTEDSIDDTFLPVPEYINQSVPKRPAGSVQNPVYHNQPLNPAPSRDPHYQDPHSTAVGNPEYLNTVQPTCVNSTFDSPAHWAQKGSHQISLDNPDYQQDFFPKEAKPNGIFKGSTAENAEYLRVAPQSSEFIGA
Chain of EGFR Del19/C797S (P00533 with tags, fused parts or gaps DEL746-750/C797S): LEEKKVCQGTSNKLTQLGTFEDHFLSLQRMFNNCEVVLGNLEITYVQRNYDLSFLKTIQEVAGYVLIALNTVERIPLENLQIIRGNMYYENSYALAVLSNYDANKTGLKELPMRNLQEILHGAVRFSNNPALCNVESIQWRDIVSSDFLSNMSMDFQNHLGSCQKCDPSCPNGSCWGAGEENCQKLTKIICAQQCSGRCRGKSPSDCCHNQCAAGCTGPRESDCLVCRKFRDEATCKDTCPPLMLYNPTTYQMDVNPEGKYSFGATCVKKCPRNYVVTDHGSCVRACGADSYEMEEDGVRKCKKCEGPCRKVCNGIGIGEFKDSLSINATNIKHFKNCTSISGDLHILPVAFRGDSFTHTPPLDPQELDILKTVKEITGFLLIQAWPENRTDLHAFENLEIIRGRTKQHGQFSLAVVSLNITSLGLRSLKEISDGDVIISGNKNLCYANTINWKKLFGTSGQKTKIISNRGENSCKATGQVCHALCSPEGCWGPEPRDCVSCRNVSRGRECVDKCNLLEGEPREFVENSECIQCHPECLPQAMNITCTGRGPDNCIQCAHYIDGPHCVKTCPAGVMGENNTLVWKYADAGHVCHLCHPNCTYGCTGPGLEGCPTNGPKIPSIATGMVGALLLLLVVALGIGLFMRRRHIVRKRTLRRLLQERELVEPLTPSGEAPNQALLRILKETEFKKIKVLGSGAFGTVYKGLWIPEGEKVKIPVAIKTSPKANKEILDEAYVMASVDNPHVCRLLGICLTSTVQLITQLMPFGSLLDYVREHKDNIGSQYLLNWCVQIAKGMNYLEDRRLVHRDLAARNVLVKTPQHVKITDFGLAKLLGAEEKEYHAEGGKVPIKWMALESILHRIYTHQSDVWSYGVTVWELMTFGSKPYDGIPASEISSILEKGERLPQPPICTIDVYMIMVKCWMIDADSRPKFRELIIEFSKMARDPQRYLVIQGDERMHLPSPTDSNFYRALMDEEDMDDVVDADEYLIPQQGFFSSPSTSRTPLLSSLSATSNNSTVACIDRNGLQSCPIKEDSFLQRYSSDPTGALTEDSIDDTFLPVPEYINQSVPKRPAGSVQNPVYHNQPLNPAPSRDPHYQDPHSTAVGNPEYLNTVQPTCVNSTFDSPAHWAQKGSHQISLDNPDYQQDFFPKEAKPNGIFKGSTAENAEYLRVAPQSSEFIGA
Chain of EGFR wildtype (WT) (P00533 25-1210): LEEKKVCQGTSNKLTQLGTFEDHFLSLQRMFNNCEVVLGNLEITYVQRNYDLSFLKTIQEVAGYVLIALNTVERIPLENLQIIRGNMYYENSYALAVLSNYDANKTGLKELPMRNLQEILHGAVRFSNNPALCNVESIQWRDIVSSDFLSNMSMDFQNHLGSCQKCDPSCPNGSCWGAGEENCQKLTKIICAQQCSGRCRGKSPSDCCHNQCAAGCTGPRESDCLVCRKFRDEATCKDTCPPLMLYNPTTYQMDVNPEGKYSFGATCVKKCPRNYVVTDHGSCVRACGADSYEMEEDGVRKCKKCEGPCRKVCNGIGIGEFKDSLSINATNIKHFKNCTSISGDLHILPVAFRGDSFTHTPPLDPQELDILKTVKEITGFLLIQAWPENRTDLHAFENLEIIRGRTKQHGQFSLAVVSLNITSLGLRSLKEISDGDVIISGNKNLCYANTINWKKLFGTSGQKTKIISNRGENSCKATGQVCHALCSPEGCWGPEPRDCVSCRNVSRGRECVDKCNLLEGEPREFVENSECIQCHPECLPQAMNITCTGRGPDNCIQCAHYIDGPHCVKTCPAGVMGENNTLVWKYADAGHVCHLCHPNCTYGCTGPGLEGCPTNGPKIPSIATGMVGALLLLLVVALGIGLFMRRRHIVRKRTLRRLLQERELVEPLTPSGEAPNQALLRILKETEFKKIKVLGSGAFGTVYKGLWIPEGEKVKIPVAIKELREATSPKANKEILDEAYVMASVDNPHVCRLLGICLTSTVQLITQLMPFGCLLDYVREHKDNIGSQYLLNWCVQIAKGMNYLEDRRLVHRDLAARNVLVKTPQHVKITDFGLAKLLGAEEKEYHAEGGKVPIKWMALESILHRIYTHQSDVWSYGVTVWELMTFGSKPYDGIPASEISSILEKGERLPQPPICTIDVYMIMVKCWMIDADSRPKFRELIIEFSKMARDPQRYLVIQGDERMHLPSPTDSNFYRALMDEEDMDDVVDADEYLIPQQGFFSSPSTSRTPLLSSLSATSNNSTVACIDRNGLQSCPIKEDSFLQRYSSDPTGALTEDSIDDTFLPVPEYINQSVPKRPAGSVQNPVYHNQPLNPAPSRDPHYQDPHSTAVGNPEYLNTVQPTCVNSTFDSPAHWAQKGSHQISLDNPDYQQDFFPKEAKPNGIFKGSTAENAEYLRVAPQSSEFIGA

Row | Structure (SMILES) | IC50 [1, 6] [nM] | IC50 [1, 7] [nM] | IC50 [2, 8] [nM] | IC50 [2, 9] [nM] | IC50 [3, 10] [nM] | IC50 [3, 11] [nM] | IC50 [4, 12] [nM] | IC50 [4, 13] [nM] | IC50 [5, 14] [nM] | IC50 ([5]; IC50 WT (nM), 100 μM ATP) [nM] | other results
1 | O=S(=O)(C1CC1)n1cc(-c2nccc(Nc3cc(N[C@H]4CC[C@@H](O)CC4)c(C#Cc4cccc(NCCN5CCOCC5)c4)cn3)n2)cn1 [Example 173, (1s,4s)-4-((2-((2-(1-(Cyclopropylsulfonyl)-1H-pyrazol-4-yl)pyrimidin-4-yl)amino)-5-((3-((2-morpholinoethyl)amino)phenyl)ethynyl)pyridin-4-yl)amino)cyclohexan-1-ol] | 2.9 |  | 1.3 |  | 6.2 |  | 7.8 |  | 22.9 |  | IC50 ([1]; read-out: IC50 Del19/T790M/C797S (nM), 100 μM ATP): 9.9 nM; IC50 ([2]; read-out: IC50 L858R/T790M/C797S (nM), 100 μM ATP): 10.5 nM; IC50 ([3]; read-out: IC50 Del19/C797S (nM), 100 μM ATP): 8.5 nM; IC50 ([4]; read-out: IC50 L858R/C797S (nM), 100 μM ATP): 100 nM; IC50 ([5]; read-out: IC50 WT (nM), 100 μM ATP): > 10000 nM
2 | CN(C)C[C@@H]1CCCN(c2cc(Nc3ccnc(-c4cnn(S(=O)(=O)C5CC5)c4)n3)ncc2C#Cc2cnn(CCF)c2)C1 [Example 385, (S)-2-(1-(Cyclopropylsulfonyl)-1H-pyrazol-4-yl)-N-(4-(3-((dimethylamino)methyl)piperidin-1-yl)-5-((1-(2-fluoroethyl)-1H-pyrazol-4-yl)ethynyl)pyridin-2-yl)pyrimidin-4-amine] |  | 0.7 |  | 2.1 |  | 11.2 |  | 37.6 |  | > 10000 | 
3 | CN1CCN(Cc2ccc(C#Cc3cnc(Nc4ccnc(-c5cnn(S(=O)(=O)C6CC6)c5)n4)cc3N[C@H]3CC[C@@H](CO)CC3)cc2)CC1 [Example 360, ((1s,4s)-4-((2-((2-(1-(Cyclopropylsulfonyl)-1H-pyrazol-4-yl)pyrimidin-4-yl)amino)-5-((4-((4-methylpiperazin-1-yl)methyl)phenyl)ethynyl)pyridin-4-yl)amino)cyclohexyl)methanol] |  | 1.1 |  | 0.9 |  | 2.7 |  | 7.7 |  | 1130 | IC50 [1, 15]: 0.8 nM; IC50 [2, 16]: 0.3 nM; IC50 [3, 17]: 2.3 nM; IC50 [4, 18]: 2.5 nM; IC50 [5, 19]: 3.8 nM

Continued by falling IC50 [1, 7], values first:

Row | IC50 [1, 6] [nM] | IC50 [1, 7] [nM] | IC50 [2, 8] [nM] | IC50 [2, 9] [nM] | IC50 [3, 10] [nM] | IC50 [3, 11] [nM] | IC50 [4, 12] [nM] | IC50 [4, 13] [nM] | IC50 [5, 14] [nM] | IC50 ([5]; IC50 WT (nM), 100 μM ATP) [nM] | Structure (SMILES) | other results
4 |  | 23.9 |  | 21.6 |  | 1730 |  | > 10000 |  | > 10000 | O=S(=O)(C1CC1)n1cc(-c2nccc(Nc3cc(N4[C@@H]5CC[C@H]4C[C@H](CO)C5)c(C#Cc4cnn(C(F)(F)F)c4)cn3)n2)cn1 [Example 332, ((1R,3s,5S)-8-(2-((2-(1-(Cyclopropylsulfonyl)-1H-pyrazol-4-yl)pyrimidin-4-yl)amino)-5-((1-(trifluoromethyl)-1H-pyrazol-4-yl)ethynyl)pyridin-4-yl)-8-azabicyclo[3.2.1]octan-3-yl)methanol] | IC50 [1, 15]: 18.9 nM; IC50 [2, 16]: 7.8 nM; IC50 [3, 17]: 800 nM; IC50 [4, 18]: 845 nM; IC50 [5, 19]: 801 nM
5 | 4.8 | 3.5 | 3.2 | 2.3 | 1.6 | 2.8 | 3.7 | 75 | 39.4 | > 10000 | O=S(=O)(C1CC1)n1cc(-c2nccc(Nc3cc(N[C@H]4CC[C@@H](CO)CC4)c(C#Cc4cnn(C(F)F)c4)cn3)n2)cn1 [Example 308, ((1s,4s)-4-((2-((2-(1-(Cyclopropylsulfonyl)-1H-pyrazol-4-yl)pyrimidin-4-yl)amino)-5-((1-(difluoromethyl)-1H-pyrazol-4-yl)ethynyl)pyridin-4-yl)amino)cyclohexyl)methanol] | 
6 |  | 1.9 |  | 2.4 |  | 27.3 |  | 53 |  | > 10000 | Cn1cc(C#Cc2cnc(Nc3ccnc(-c4cnn(S(=O)(=O)C5CC5)c4)n3)cc2N2CC(C(C)(C)O)C2)cn1 [Example 35, 2-(1-(2-((2-(1-(Cyclopropylsulfonyl)-1H-pyrazol-4-yl)pyrimidin-4-yl)amino)-5-((1-methyl-1H-pyrazol-4-yl)ethynyl)pyridin-4-yl)azetidin-3-yl)propan-2-ol] | IC50 ([1]; Km ATP, read-out: IC50 Del19/T790M/C797S (nM) Km ATP): 0.9 nM; IC50 ([2]; Km ATP, read-out: IC50 L858R/T790M/C797S (nM) Km ATP): 2.4 nM; IC50 ([3]; Km ATP, read-out: IC50 Del19/C797S (nM) Km ATP): 28 nM; IC50 ([4]; Km ATP, read-out: IC50 L858R/C797S (nM) Km ATP): 34.2 nM; IC50 ([5]; Km ATP, read-out: IC50 WT (nM) Km ATP): 99.6 nM
7 | 1.2 | 1.4 | 3.6 | 3.6 | 13.3 | 17.2 | 33.5 | 333 | 131 | > 10000 | CC1(CO)CCN(c2cc(Nc3ccnc(-c4cnn(S(=O)(=O)C5CC5)c4)n3)ncc2C#CC2(O)CCCCC2)CC1 [Example 175, 1-((6-((2-(1-(Cyclopropylsulfonyl)-1H-pyrazol-4-yl)pyrimidin-4-yl)amino)-4-(4-(hydroxymethyl)-4-methylpiperidin-1-yl)pyridin-3-yl)ethynyl)cyclohexan-1-ol] | 
